Km data for one molecule are collected here from publication PMC11191352, “Mandelonitrile lyase MDL2-mediated regulation of seed amygdalin and oil accumulation of Prunus Sibirica” (BMC Plant Biology, 2024).

The test system of the experiment is T1, PsMDL2.
T1 construct: gene MDL2
The experiment in a line: spectrophotometric mandelonitrile cleavage at […] nm, Lineweaver-Burk. Type of experiment: biochemical, Prunus sibirica. The note with it: 0.1 M citrate-phosphate buffer pH 5.0, 25 °C; mandelonitrile 0.05-4.0 mM; purified recombinant enzyme.

SMILES strings stand for the structures.

As for `N#CC(O)c1ccccc1` (stereo not shown) [mandelonitrile], the Km was determined as 220 µM.
